Assay results as given in US9896491B2, “Composition for treatment of multiple sclerosis” (LIFEBIO LABORATORIES LLC, priority 2009, dated 2018).
Where two headings read alike, the source gives them in different places.

How the values were obtained:
[1] = test system: Experimental Allergic Encephalomyelitis (EAE) in DA rats; assay: MDS score in EAE DA rats; assay type: in vivo; conditions: intranasal, days 8-12; FIG. 4; dose-dependent for SEQ ID NO: 2
ESAMBPCAA [2] = assay: ESAMBPCAA mediated MBP hydrolysis in serum of treated EAE DA rats; assay type: in vivo; conditions: days 8-12; for rates of MBP-specific auto antibody mediated hydrolysis: 120 μg daily intranasal, median for 6 animals; for suppression of MBP-specific auto antibody mediated hydrolysis: intranasal, dose-dependent for SEQ ID NO: 2
ESAMBPCAA [3] = assay: ESAMBPCAA mediated MBP hydrolysis in serum samples of progressive MS patients in presence of test substances; assay type: biochemical, human; conditions: for suppressive effect on MBP-specific auto antibody mediated hydrolysis: 100 nM, summary of Table 3; for MBP-specific auto antibody mediated hydrolysis: test substance 100 nM
Experimental: (§1) MBP hydrolysis by anti MBP auto antibodies was assayed as follows: Purified antibodies (0.1-1 μg) were incubated at 37° C. for 14 h in the final volume of 12.5 μl PBS, 0.02% NaN3 containing 1-2 μg of MBP. The samples were mixed with Laemmli's buffer. The extent of MBP degradation was visualized by SDS-PAGE in Tris-glycine and Tricine buffer systems. For quantitative MBP degradation assay, MBP (10 μM) was incubated at 37° C. with antibodies (60 nM) in 0.1 ml of PBS, 0.02% NaN3 for 12 h. The reaction was stopped by adding 10% TFA up to pH 2.5. The samples were further chromatographed on column C4 4.0/150 (Waters). The amount of non-cleaved MBP was calculated by absorbance monitoring at 280 nm.
Serum samples collected from 5 patients suffering from progressive MS were quantified for ESAMBPCAA mediated MBP hydrolysis as specified in Example 1 in presence of following substances: […]

[4] = test system: progressive multiple sclerosis patients; conditions: 500 mg intravenously every six months; cited from earlier work
[5] = test system: Experimental MS (Theiler's Virus Infection) in SJL mice; assay: Experimental MS (Theiler's Virus Infection): disease manifestation and MDS score; assay type: in vivo; conditions: days 14-24; for % Animals affected with disease at day 100: 30 mice per group
Experimental: (§2) The BeAn strain of TMEV used in this study was generated and propagated in BHK-21 cells grown in Dulbecco's modified Eagle's medium supplemented with 7.5% donor calf serum. For i.c. infection, 30 μl of virus solution (0.2×10^6 to 6×10^6 PFU) was injected into the right cerebral hemisphere of 6- to 8-week-old SJL mice (8 animals per group) anesthetized with isoflurane. Clinical symptoms (MDS score) of disease were assessed weekly on the following grading scale: grade 0, no clinical signs; grade 1, mild waddling gait or flaccid tail; grade 2, severe waddling gait; grade 3, moderate hind limb paresis; and grade 4, severe hind limb paralysis. Serum samples collected from animals were quantified for ESAMBPCAA mediated MBP hydrolysis as specified in Example 1
(§3) At day 14 following infection mice were divided into 6 groups ([…]) and treated during 10 days (days 14-24) according following schedule: […]

[6] = test system: Experimental Allergic Encephalomyelitis (EAE) in Dark Agouti (DA) Rats; assay: EAE induced by MBP 63-81 in DA rats: clinical signs score; assay type: in vivo; conditions: for therapeutic effect: 150 μg/rat/day SC during 6 days; for Clinical signs score on day 23 after induction (mean): 150 μg/rat/day SC during 6 days from day 9-11 after EAE induction, score 0-5
Experimental: Female Dark Agouti (DA) Rats, 8-9 weeks of age, about 110-145 g of weight were used as test animals.
For induction of Experimental Allergic Encephalomyelitis (EAE), rats were injected intradermally at the base of the tail with a total volume of 200 μl of inoculum containing 50 μg of MBP 63-81 (ANASPEC), in saline mixed (1:1) with Complete Freund Adjuvant, (IFA, Sigma), and 1 mg killed M. tuberculosis strain (strain H37 RA; Difco Laboratories, Detroit, Mich.). Beginning 24 hours after EAE induction the rats were followed up daily. On day 9 after the after EAE induction more than 50% of the rats developed signs of paralysis. The animals with multiple sclerosis signs were separated into 10 groups for beginning of treatment. Prior to treatment, blood was collected from 2 rats from each group. At day 9 and 11 after EAE induction, 90% of rats developed signs of EAE.
9-11 days after EAE induction the animals were divided into 9 groups (5-6 rats in each). Each group of rats was treated subcutaneously once daily with different claimed oligopeptide or theirs combinations (equimolar mix) (150 μg) or doses of positive control item (Glatiramer acetate, Copaxone, Teva) or negative control item (0.9% Sodium chloride solution), during 6 days as follows:
Copaxone, claimed oligopeptide and combinations thereof (Mechanical mix) were diluted with 0.9% Sodium chloride to a concentration of 450 μg/ml. Volume of 0.33 ml (150 μg/rat/day) was injected SC during 6 days.
After 6 days of the injections cycle the animals were maintained and followed up till day 28th post EAE induction. Clinical signs score was performed daily during study periods. Animals were observed individually during all study periods. In cases of extended observation period clinical signs were recorded once daily. Observations included changes in the fur, eyes, respiratory rate, vocalization, paralysis, activity and behavior pattern. Score of paralysis signs related to MS of each animal was done daily (during all study periods).
Score gradation was as follows: 0—Normal; 1—Tail weakness; 2—Hind leg weakness or paralysis; 3—Hind leg paralysis, dragging hind limbs; 4—Complete paralysis, unable to move; 5—Death.

ESAMBPCAA [7] = assay: ESAMBPCAA mediated MBP hydrolysis in serum of treated TMEV-infected SJL mice; assay type: in vivo; conditions: days 14-24
Experimental: as §1, §2, §3

antibodies to MBP = conditions: in vitro and in vivo (in blood of MS-patients); cited from earlier work
[8] = test system: secondary progressive MS patients; conditions: phase I; cited from earlier work
[9] = test system: relapsing-remitting multiple sclerosis patients; conditions: Neurology 1995; 45: 1268; cited from earlier work
CD20+ B lymphocytes = conditions: relapsing-remitting multiple sclerosis (RRMS) patients; cited from earlier work
[10] = test system: relapsing-remitting multiple sclerosis patients; conditions: Neurology 1993; 43: 662-7; cited from earlier work
[11] = 20 μg of each oligopeptide daily subcutaneous

APKRGSGKDSH [A4]
suppression of MDS score [1]: active in suppression | rates of MBP-specific auto antibody mediated hydrolysis (ESAMBPCAA [2]; Day 8 (start of treatment)): 49.3 ± 4.9 pmol/min/nmol | rates of MBP-specific auto antibody mediated hydrolysis (ESAMBPCAA [2]; Day 16): 45.9 ± 7.1 pmol/min/nmol | rates of MBP-specific auto antibody mediated hydrolysis (ESAMBPCAA [2]; Day 24): 45.1 ± 6.3 pmol/min/nmol | suppression of MBP-specific auto antibody mediated hydrolysis (ESAMBPCAA [2]): active in suppression | suppressive effect on MBP-specific auto antibody mediated hydrolysis (ESAMBPCAA [3]): potent suppressive effect | MBP-specific auto antibody mediated hydrolysis (ESAMBPCAA [3]; Patient 1): 12.1 ± 3.6 pmol/min/nmol | MBP-specific auto antibody mediated hydrolysis (ESAMBPCAA [3]; Patient 2): 15.6 ± 2.9 pmol/min/nmol | MBP-specific auto antibody mediated hydrolysis (ESAMBPCAA [3]; Patient 3): 14.3 ± 4.4 pmol/min/nmol | MBP-specific auto antibody mediated hydrolysis (ESAMBPCAA [3]; Patient 4): 15.8 ± 4.9 pmol/min/nmol | MBP-specific auto antibody mediated hydrolysis (ESAMBPCAA [3]; Patient 5): 13.3 ± 5.9 pmol/min/nmol

DENPVVHFFKNIVTPRT [MBP8298, synthetic peptide, amino acid residues 82-98 of MBP]
responders on the treatment [4]: responders on the treatment with MBP8298 are the patients with HLA heliotypes DR2 and/or DR4 only

GFGYGGRASDYKSAHK [SEQ ID NO: 3]
therapeutic effect [5, 11]: moderate therapeutic effect | % Animals affected with disease at day 100 [5, 11]: 25(30) % | therapeutic effect [6]: moderate therapeutic effect | Clinical signs score on day 23 after induction (mean) [6]: 0.9 | ESAMBPCAA activity at day 100 (ESAMBPCAA [7]; [11]): 40 ± 3.1 pmol/min/nmol | suppression of MBP-specific auto antibody mediated hydrolysis (ESAMBPCAA [7]; [11]): do not affect

MBP 35-58: non-binding, control peptide, human MBP 35-58 (LSRTTSEDNEVFGEADANQNNGTS; UniProt P02686 35-58, looked up, fragment)
effect on free and bound antibodies to MBP (antibodies to MBP): no effect

MBP 75-95: soluble synthetic peptide, residues 75-95 of human MBP (WO 98/45327) (NAWQDAHPADPGSRPHLIRLF; UniProt P02686 75-95, looked up, fragment)
effect on free and bound antibodies to MBP (antibodies to MBP): showed its ability to bound free antibodies to MBP both in vitro and in vivo

MBP 84-102: MBP 84-102 fragment (U.S. Pat. No. 5,858,980) (DPGSRPHLIRLFSRDAPGR; UniProt P02686 84-102, looked up, fragment)
treatment efficacy (Expanded Disability Status Scale, Nine Hole Peg Test, new lesions by Magnetic Resonance Imaging) [8]: No treatment efficacy were detected

QGTLSKIFKLGGRDSRSGSPMARR [SEQ ID NO: 4]
therapeutic effect [5, 11]: moderate therapeutic effect | % Animals affected with disease at day 100 [5, 11]: 27(30) % | therapeutic effect [6]: moderate therapeutic effect | Clinical signs score on day 23 after induction (mean) [6]: 0.8 | ESAMBPCAA activity at day 100 (ESAMBPCAA [7]; [11]): 35.3 ± 5.1 pmol/min/nmol | suppression of MBP-specific auto antibody mediated hydrolysis (ESAMBPCAA [7]; [11]): do not affect

RGAPKRGSGKRGAPKRGSGKRGAPKRGSGKRGAPKRGSGKRGAPKRGSGKRGAPKRGSGK [A6]
suppression of MDS score [1]: active in suppression | rates of MBP-specific auto antibody mediated hydrolysis (ESAMBPCAA [2]; Day 8 (start of treatment)): 45.7 ± 6.5 pmol/min/nmol | rates of MBP-specific auto antibody mediated hydrolysis (ESAMBPCAA [2]; Day 16): 48.1 ± 7.4 pmol/min/nmol | rates of MBP-specific auto antibody mediated hydrolysis (ESAMBPCAA [2]; Day 24): 39.4 ± 4.6 pmol/min/nmol | suppression of MBP-specific auto antibody mediated hydrolysis (ESAMBPCAA [2]): active in suppression | suppressive effect on MBP-specific auto antibody mediated hydrolysis (ESAMBPCAA [3]): potent suppressive effect | MBP-specific auto antibody mediated hydrolysis (ESAMBPCAA [3]; Patient 1): 7.7 ± 3.3 pmol/min/nmol | MBP-specific auto antibody mediated hydrolysis (ESAMBPCAA [3]; Patient 2): 22.3 ± 4.2 pmol/min/nmol | MBP-specific auto antibody mediated hydrolysis (ESAMBPCAA [3]; Patient 3): 20.1 ± 3.9 pmol/min/nmol | MBP-specific auto antibody mediated hydrolysis (ESAMBPCAA [3]; Patient 4): 21.5 ± 6.6 pmol/min/nmol | MBP-specific auto antibody mediated hydrolysis (ESAMBPCAA [3]; Patient 5): 5.0 ± 1.8 pmol/min/nmol

SGKDS [A5]
MBP-specific auto antibody mediated hydrolysis (ESAMBPCAA [3]; Patient 1): 57 ± 4.1 pmol/min/nmol | MBP-specific auto antibody mediated hydrolysis (ESAMBPCAA [3]; Patient 2): 59.7 ± 5.7 pmol/min/nmol | MBP-specific auto antibody mediated hydrolysis (ESAMBPCAA [3]; Patient 3): 44.2 ± 6.6 pmol/min/nmol | MBP-specific auto antibody mediated hydrolysis (ESAMBPCAA [3]; Patient 4): 45.5 ± 3.8 pmol/min/nmol | MBP-specific auto antibody mediated hydrolysis (ESAMBPCAA [3]; Patient 5): 55.7 ± 6.1 pmol/min/nmol

glatiramer acetate [A2, reference compound]
Adverse Reactions [9]: Low | Clinical Observations: Decrease of relapse frequency [9]: frequency—29%; | Clinical Observations: EDSS score progression [9]: Slowing EDSS | MRI Data: decrease of active lesions [9]: No statistical | % Animals affected with disease at day 100 ([5]; 30 μg daily subcutaneous): 25(30) % | rates of MBP-specific auto antibody mediated hydrolysis (ESAMBPCAA [2]; Day 8 (start of treatment)): 51.4 ± 8.2 pmol/min/nmol | rates of MBP-specific auto antibody mediated hydrolysis (ESAMBPCAA [2]; Day 16): 55.4 ± 5.7 pmol/min/nmol | rates of MBP-specific auto antibody mediated hydrolysis (ESAMBPCAA [2]; Day 24): 62.2 ± 5.7 pmol/min/nmol | Clinical signs score on day 23 after induction (mean) [6]: 1.1 | MBP-specific auto antibody mediated hydrolysis (ESAMBPCAA [3]; Patient 1): 62.5 ± 1.2 pmol/min/nmol | MBP-specific auto antibody mediated hydrolysis (ESAMBPCAA [3]; Patient 2): 72.6 ± 7.7 pmol/min/nmol | MBP-specific auto antibody mediated hydrolysis (ESAMBPCAA [3]; Patient 3): 51.2 ± 3.5 pmol/min/nmol | MBP-specific auto antibody mediated hydrolysis (ESAMBPCAA [3]; Patient 4): 47.7 ± 7.9 pmol/min/nmol | MBP-specific auto antibody mediated hydrolysis (ESAMBPCAA [3]; Patient 5): 65.7 ± 5.4 pmol/min/nmol | ESAMBPCAA activity at day 100 (ESAMBPCAA [7]; 30 μg daily subcutaneous): 39.8 ± 4.1 pmol/min/nmol

rituximab: monoclonal antibody, which selectively targets and depletes CD20+ B lymphocytes
safety and efficacy of therapy (CD20+ B lymphocytes): appears safe and effective to some extend

B1: Beta-Interferon: Beta-Interferon, existing standard of MS therapy (protein, UniProt P01574 22-187, looked up, variant C17S)
Interferon beta: MSYNLLGFLQRSSNFQSQKLLWQLNGRLEYCLKDRMNFDIPEEIKQLQQFQKEDAALTIYEMLQNIFAIFRQDSSSTGWNETIVENLLANVYHQINHLKTVLEEKLEKEDFTRGKLMSSLHLKRYYGRILHYLKAKEYSHCAWTIVRVEILRNFYFINRLTGYLRN
modifications: interferon beta-1b, lacks N-terminal Met
notes: Beta-Interferon, existing standard of MS therapy
Adverse Reactions [10]: High | Clinical Observations: Decrease of relapse frequency [10]: frequency—83%; | Clinical Observations: EDSS score progression [10]: No slowing EDSS | MRI Data: decrease of active lesions [10]: 83% decrease
